Values of other authors as cited in US11278572B2, “Reducing CXCR4 expression and/or function to enhance engraftment of hematopoietic stem cells” (THE UNITED STATES OF AMERICA, as represented by the …, priority 2014, dated 2022).

Experiments:
HPV = details: WHIM patients
CXCR4 = details: WHIM patients, small studies

Row | SMILES | effect on cutaneous and anogenital HPV disease (HPV) | effect on panleukopenia and WHIM syndrome (CXCR4)
1 | CC(C)Cn1cnc2c(N)nc3ccccc3c21 [imiquimod] | ineffective | –
2 | c1cc(CN2CCCNCCNCCCNCC2)ccc1CN1CCCNCCNCCCNCC1 [Plerixafor, plerixafor] | – | successful at reversing the panleukopenia and treating WHIM syndrome
